Our source for the IC50 values is patent publication US20250163064A1, “QUINAZOLINE COMPOUNDS AND USES THEREOF AS INHIBITORS OF MUTANT KRAS PROTEINS” (AMGEN INC., priority 2022, published 2025).

pIC50: −log10 of the molar value. Like-named read-outs stand apart in the source and are kept apart here.

The target of experiment [1] is His-tagged KRAS G12D protein (Homo sapiens (Human), UniProt P01116, G12D). Kind of experiment: KRAS G12D TR-FRET Assay. The class given is binding. The following applies: biotinylated KRPep-2d, 10 μM GDP. An outline of the steps:
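His-KRAS G12D (20 nM working solution) preincubated with compound 30 min at rt in HEPES pH 7.4 buffer with 10 μM GDP, then biotinylated KRPep-2d added for 1 h. Eu-anti-His/streptavidin-d2 TR-FRET 665/615 ratio; IC50 from 4-parameter logistic fit.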
Background: In TR-FRET formats the signal depends on donor and acceptor labels being close together.

Experiment [2] deals with GDP-bound KRAS protein (aa 1-169), G12D and C118A; SOS-mediated nucleotide exchange (Homo sapiens (Human), UniProt P01116, C118A/G12D). Kind of experiment: KRAS G12D Coupled Nucleotide Exchange Assay. The class given is biochemical. The following applies: 2 h compound pre-incubation, GTP, cRAF AlphaScreen. An outline of the steps: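 Read-out was AlphaScreen, with IC50 derived by 4-parameter logistic fitting. Before that, SOS (aa 564-1049) and GTP drove 30 min exchange on His-tagged KRAS 1-169 carrying G12D and C118A, following a 2 h compound preincubation in 25 mM HEPES pH 7.4, 10 mM MgCl2, 0.01% Triton X-100.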
Background: Alpha assays give light when donor and acceptor beads are brought close together.

Experiment [3] concerns Phosphorylation of ERK1/2 in AsPC-1 cells. Kind of experiment: Phospho-ERK1/2 MSD Assay. In kind it is cell-based. The note with it: for IC50: Homo sapiens, ASPC1, 2 h, read-out: 2 h p-ERK (AsPC-1 cells), IC50 (μM), AsPC-1 cells, 2 h compound treatment; for pIC50: read-out: 2 h p-ERK (AsPC-1 cells), IC50, AsPC-1 cells, 2 h compound treatment. An outline of the steps:
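AsPC-1 cells in 10% FBS RPMI 1640 were treated with a compound dose titration for 2 h at 37° C, then lysed in RIPA buffer with protease and phosphatase inhibitors. Phospho-ERK1/2 was measured by MSD whole-cell lysate immunoassay, and IC50 was derived by 4-parameter logistic fit.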

Chain of GDP-bound KRAS protein (aa 1-169), G12D and C118A; SOS-mediated nucleotide exchange (P01116 other isoform, or with tags, fused parts or gaps G12D/C118A): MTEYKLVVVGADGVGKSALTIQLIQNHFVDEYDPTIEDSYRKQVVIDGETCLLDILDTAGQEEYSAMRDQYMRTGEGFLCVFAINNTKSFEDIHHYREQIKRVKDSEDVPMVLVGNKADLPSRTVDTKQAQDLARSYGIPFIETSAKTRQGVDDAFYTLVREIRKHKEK
Chain of His-tagged KRAS G12D protein (P01116-2 other isoform, or with tags, fused parts or gaps G12D): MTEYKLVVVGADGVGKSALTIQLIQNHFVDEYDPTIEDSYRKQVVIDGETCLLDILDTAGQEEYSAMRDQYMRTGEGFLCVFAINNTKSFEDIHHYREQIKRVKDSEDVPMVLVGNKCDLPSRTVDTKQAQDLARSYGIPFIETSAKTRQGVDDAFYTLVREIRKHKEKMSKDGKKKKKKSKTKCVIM

`N#Cc1c(N)sc2c(F)ccc(-c3c(Cl)cc4c(N5CCC6CCC(C5)O6)nc(OC[C@@]56CCCN5C[C@H](F)C6)nc4c3F)c12` (stereo partly drawn) [Example 21]: the pIC50 (usually the negative decadic logarithm of the IC50, by convention in mol/L) in experiment [1] was 8.00; in experiment [2], 8.10. In addition, in experiment [3], the IC50 (commonly the concentration at which inhibition is half-maximal) was 0.532 µM.
Turning to `N#Cc1c(N)sc2c(F)ccc(-c3c(Cl)cc4c(C5CC5)nc(OC[C@@]56CCCN5C[C@H](F)C6)nc4c3F)c12` [Example 71, 2-Amino-4-(6-chloro-4-cyclopropyl-8-fluoro-2-(((2R,7aS)-2-fluorotetrahydro-1H-pyrrolizin-7a(5H)-yl)methoxy)quinazolin-7-yl)-7-fluorobenzo[b]thiophene-3-carbonitrile bis(2,2,2-trifluoroacetate)], the pIC50 in experiment [1] was 7.96; in experiment [2], 8.30. Besides, in experiment [3], the IC50 is 0.185 µM.
Consider `C[C@@]1(O)CCCN(c2nc(OC[C@@]34CCCN3C[C@H](F)C4)nc3c(F)c(-c4ccc(F)c5sc(N)c(C#N)c45)c(Cl)cc23)C1` [Example 41, 2-Amino-4-(6-chloro-8-fluoro-2-(((2R,7aS)-2-fluorotetrahydro-1H-pyrrolizin-7a(5H)-yl)methoxy)-4-((R)-3-hydroxy-3-methylpiperidin-1-yl)quinazolin-7-yl)-7-fluorobenzo[b] thiophene-3-carbonitrile], for which the pIC50 in experiment [1] was 8.52; in experiment [2], 8.40. Besides, in experiment [3], the IC50 came to 0.288 µM.
In the case of `N#Cc1c(N)sc2c(F)ccc(-c3c(Cl)cc4c(N5CCCCOCC5)nc(OC[C@@]56CCCN5C[C@H](F)C6)nc4c3F)c12` [Example 51, 2-Amino-4-(6-chloro-8-fluoro-2-(((2R,7aS)-2-fluorotetrahydro-1H-pyrrolizin-7a(5H)-yl)methoxy)-4-(1,4-oxazocan-4-yl)quinazolin-7-yl)-7-fluorobenzo[b] thiophene-3-carbonitrile], the pIC50 in experiment [1] and in experiment [2] was 8.70 in each case. The IC50 in experiment [3] was 0.089 µM.
As to `N#Cc1c(N)sc2c(F)ccc(-c3c(Cl)cc4c(N5CC6COC(C6)C5)nc(OC[C@@]56CCCN5C[C@H](F)C6)nc4c3F)c12` (stereo partly drawn) [Example 33, 4-(4-(6-Oxa-3-azabicyclo[3.2.1]octan-3-yl)-6-chloro-8-fluoro-2-(((2R,7aS)-2-fluorotetrahydro-1H-pyrrolizin-7a(5H)-yl)methoxy)quinazolin-7-yl)-2-amino-7-fluorobenzo[b] thiophene-3-carbonitrile], the pIC50 in experiment [1] and in experiment [2] was 8.52 in each case. In experiment [3], the IC50 came to 0.285 µM.
Turning to `N#Cc1c(N)sc2c(F)ccc(-c3c(Cl)cc4c(N5CCCCC(C#N)C5)nc(OC[C@@]56CCCN5C[C@H](F)C6)nc4c3F)c12` (stereo partly drawn) [Example 57, 1-(7-(2-Amino-3-cyano-7-fluorobenzo[b]thiophen-4-yl)-6-chloro-8-fluoro-2-(((2R,7aS)-2-fluorotetrahydro-1H-pyrrolizin-7a(5H)-yl)methoxy)quinazolin-4-yl)azepane-3-carbonitrile], the pIC50 in experiment [1] and in experiment [2] was 8.52 each time. The IC50 in experiment [3] turned out to be 0.061 µM.
On to `COC[C@@H]1CCCN1c1nc(OC[C@@]23CCCN2C[C@H](F)C3)nc2c(F)c(-c3ccc(F)c4sc(N)c(C#N)c34)c(Cl)cc12` [Example 48, 2-Amino-4-(6-chloro-8-fluoro-2-(((2R,7a.S)-2-fluorotetrahydro-1H-pyrrolizin-7a(5H)-yl)methoxy)-4-((S)-2-(methoxymethyl)pyrrolidin-1-yl)quinazolin-7-yl)-7-fluorobenzo[b] thiophene-3-carbonitrile], for which the pIC50 was 7.35 in experiment [1] and 7.68 in experiment [2]. Moreover, in experiment [3], the IC50 is 3.06 µM.
In the same order, the values of `N#Cc1c(N)sc2c(F)ccc(-c3c(Cl)cc4c(N5CCCS(=O)(=O)CC5)nc(OC[C@@]56CCCN5C[C@H](F)C6)nc4c3F)c12` [Example 25, 2-Amino-4-(6-chloro-4-(1,1-dioxido-1,4-thiazepan-4-yl)-8-fluoro-2-(((2R,7aS)-2-fluorotetrahydro-1H-pyrrolizin-7a(5H)-yl)methoxy)quinazolin-7-yl)-7-fluorobenzo[b] thiophene-3-carbonitrile] are 8.52, 8.52 and 0.492 µM.
For `CC1(O)COCCN(c2nc(OC[C@@]34CCCN3C[C@H](F)C4)nc3c(F)c(-c4ccc(F)c5sc(N)c(C#N)c45)c(O)cc23)C1` (stereo partly drawn) [Example 63, 2-Amino-7-fluoro-4-(8-fluoro-2-(((2R,7aS)-2-fluorotetrahydro-1H-pyrrolizin-7a (H)-yl)methoxy)-6-hydroxy-4-(6-hydroxy-6-methyl-1,4-oxazepan-4-yl)quinazolin-7-yl)benzo[b]thiophene-3-carbonitrile], the pIC50 in experiment [1] is 8.40; in experiment [2] it was 8.52; in experiment [3], less than 5.00.
On to `N#Cc1c(N)sc2c(F)ccc(-c3c(Cl)cc4c(N5CCC[C@H]5CO)nc(OC[C@@]56CCCN5C[C@H](F)C6)nc4c3F)c12` [Example 49, 2-Amino-4-(6-chloro-8-fluoro-2-(((2R,7aS)-2-fluorotetrahydro-1H-pyrrolizin-7a(5H)-yl)methoxy)-4-((S)-2-(hydroxymethyl)pyrrolidin-1-yl)quinazolin-7-yl)-7-fluorobenzo[b] thiophene-3-carbonitrile], for which the pIC50 in experiment [1] and in experiment [2] was 8.40 in each case. Besides, the IC50 in experiment [3] was determined as 0.252 µM.
As for `N#Cc1c(N)sc2c(F)ccc(-c3c(Cl)cc4c(N5CCCC6(CCO6)C5)nc(OC[C@@]56CCCN5C[C@H](F)C6)nc4c3F)c12` (stereo partly drawn) [Example 20, 2-Amino-4-(6-chloro-8-fluoro-2-(((2R,7aS)-2-fluorotetrahydro-1H-pyrrolizin-7a(5H)-yl)methoxy)-4-(1-oxa-6-azaspiro[3.5]nonan-6-yl)quinazolin-7-yl)-7-fluorobenzo[b] thiophene-3-carbonitrile], the results for the pIC50 in experiment [1] and in experiment [2] were 7.66 and 7.59, respectively. For the same compound, in experiment [3], the IC50 was 1.02 µM.
For the compound `CCC1(O)COCCN(c2nc(OC[C@@]34CCCN3C[C@H](F)C4)nc3c(F)c(-c4ccc(F)c5sc(N)c(C#N)c45)c(Cl)cc23)C1` (single isomer, unassigned) [Example 44], the pIC50 was 8.70 in experiment [1] and 7.49 in experiment [3]. The compound also registered an IC50 in experiment [2] of 3 nM.
On to `CS(=O)(=O)N1CC2(CCCN(c3nc(OC[C@@]45CCCN4C[C@H](F)C5)nc4c(F)c(-c5ccc(F)c6sc(N)c(C#N)c56)c(Cl)cc34)C2)C1` [Example 14], for which the pIC50 in experiment [1] and in experiment [2] was 8.40 each time. In experiment [3], the IC50 was 0.729 µM.
With `CC1(O)COCCN(c2nc(OC[C@@]34CCCN3C[C@H](F)C4)nc3c(F)c(-c4ccc(F)c5sc(N)c(C#N)c45)c(Cl)cc23)C1` (single isomer, unassigned) [Example 22], the figures for the pIC50 in experiment [1] and in experiment [3] were 8.70 and 7.89, respectively. The compound further displayed an IC50 in experiment [2] of 2 nM.
Consider `N#Cc1c(N)sc2c(F)ccc(-c3c(Cl)cc4c(N5CCOCC(F)(F)C5)nc(OC[C@@]56CCCN5C[C@H](F)C6)nc4c3F)c12` [Example 34, 2-Amino-4-(6-chloro-4-(6,6-difluoro-1,4-oxazepan-4-yl)-8-fluoro-2-(((2R,7aS)-2-fluorotetrahydro-1H-pyrrolizin-7a(5H)-yl)methoxy)quinazolin-7-yl)-7-fluorobenzo[b] thiophone-3-carbonitrile], for which the pIC50 in experiment [1] and in experiment [2] was 8.40 each time. The IC50 in experiment [3] was 0.093 µM.
As to `N#Cc1c(N)sc2c(F)ccc(-c3c(Cl)cc4c(N5CCC[C@@H](S(N)(=O)=O)C5)nc(OC[C@@]56CCCN5C[C@H](F)C6)nc4c3F)c12` [Example 12, (3R)-1-(7-(2-Amino-3-cyano-7-fluorobenzo[b]thiophen-4-yl)-6-chloro-8-fluoro-2-(((2R,7aS)-2-fluorotetrahydro-1H-pyrrolizin-7a(5H)-yl)methoxy)quinazolin-4-yl)piperidine-3-sulfonamide], the pIC50 in experiment [1] and in experiment [2] was 8.22 in each case. For the same compound, the IC50 in experiment [3] stood at 1.81 µM.
On to `N#Cc1c(N)sc2c(F)ccc(-c3c(Cl)cc4c(N5CCOC[C@H](O)C5)nc(OC[C@@]56CCCN5C[C@H](F)C6)nc4c3F)c12` [Example 30, 2-Amino-4-(6-chloro-8-fluoro-2-(((2R,7aS)-2-fluorotetrahydro-1H-pyrrolizin-7a(5H)-yl)methoxy)-4-((R)-6-hydroxy-1,4-oxazepan-4-yl)quinazolin-7-yl)-7-fluorobenzo[b] thiophene-3-carbonitrile], for which the pIC50 in experiment [1] was 9.40; in experiment [2], 9.10. Also, the half-inhibitory concentration (IC50) in experiment [3] came out at 0.212 µM.
In the same order, the values of `N#Cc1c(N)sc2c(F)ccc(-c3c(Cl)cc4c(N5CCCC(=O)CC5)nc(OC[C@@]56CCCN5C[C@H](F)C6)nc4c3F)c12` [Example 16, 2-Amino-4-(6-chloro-8-fluoro-2-(((2R,7a.S)-2-fluorotetrahydro-1H-pyrrolizin-7a(5H)-yl)methoxy)-4-(4-oxoazepan-1-yl)quinazolin-7-yl)-7-fluorobenzo[b] thiophene-3-carbonitrile] are 8.70, 8.52 and 0.076 µM.
